{"source": "PubChem BioAssay AID1845212", "about": "(Molecular Pharmacology Branch, DTP, NCI, 2023)", "tested_on": "NCI-H719 tumor spheroids, viability", "assay": "Anticancer human tumor NCI-H719 cell line growth inhibition;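 on all read-outs here: spheroids exposed to compounds for seven days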;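 on viability, T/C: percent viability relative to DMSO vehicle control as 100%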", "settings": "spheroids with HUVEC and MSC; for viability, T/C: stronger effect = lower value", "excerpt": "Multicellular complex tumor spheroid response to DNA repair inhibitors in combination with DNA-damaging drugs\nThis study explores the anticancer activities of DNA-damaging drugs and inhibitors of DNA damage repair, both as single agents and in combinations. Complex tumor spheroids comprised of malignant cells, endothelial cells and mesenchymal stem cells served as an in vitro model for human solid tumors. This model system incorporates physiologically relevant features and patient-derived or established malignant cell lines with clinically relevant genetic alterations from many tumor types. Twenty-six patient-derived or established malignant cell lines were evaluated representing sarcoma, melanoma, small cell lung cancer (SCLC), non-small cell lung cancer (NSCLC), as well as bladder, ovarian and pancreatic cancers. The concentration ranges selected for each drug and investigational agent were based upon clinically achievable concentrations if the clinical Cmax of the agent was known.\nCompounds. The drugs and compounds olaparib (NSC753686), talazoparib (NSC767125), berzosertib (NSC777718), elimusertib (NSC800525), nedisertib (NSC802822), VX-984 (NSC792969), AZD-1390 (NSC803789), temozolomide (NSC362856), topotecan (NSC609699), trabectedin (NSC813783), staurosporine (NSC755774), and gemcitabine (NSC613327) were obtained from the National Cancer Institute (NCI) Developmental Therapeutics Program Chemical Repository. The FDA-approved anticancer drug set is available from the Developmental Therapeutics Program at https://dtp.cancer.gov/organization/dscb/obtaining/available_plates.htm. […] The stock solutions were prepared in dimethyl sulfoxide (DMSO, Sigma-Aldrich, St. Louis, MO, cat. D2650) at 400-fold the tested concentration and stored at -70 degrees C. Prior to their use, the stock solutions were diluted in fresh medium and the final DMSO concentration in the assay was 0.25% (v/v). All drugs and investigational agents were tested over a range starting from a high concentration at or near the clinical Cmax and decreasing in half-log increments. If the clinical Cmax for an agent had not been determined, the highest concentration tested was 10 microM.\nCell Lines. The patient-derived cancer cell (PDC) lines: 156681-154-R-J1-PDC, 283228-195-R-J1-PDC, 287954-098-R-J1-PDC, 292921-168-R-J2-PDC, 349418-098-R-PDC, 425362-245-T-J1-PDC, 556581-035-R-J1-PDC, and BL0293-F563-PDC were received from the NCI Patient-Derived Models Repository (PDMR, https://pdmr.cancer.gov). The established cell lines HS-SY-2 (RRID:CVCL_8719), MPNST, and SYO-1 (RRID:CVCL_7146) were obtained from the Sloan Kettering Institute. The alveolar soft parts sarcoma cell line ASPS-1 (RRID:CVCL_S738) was established at the NCI and grown from internal seed stocks. The following established cell lines were purchased from the American Type Culture Collection (ATCC, Manassas, VA): G-401 (ATCC, cat. CRL-1441, RRID:CVCL_0270), SW982 (ATCC, cat. HTB-93, RRID:CVCL_1734), VA-ES-BJ (ATCC, cat. CRL-2138, RRID:CVCL_1785), NCI-H719 (ATCC, cat. CRL-5837, RRID:CVCL_1582), NCI-H196 (ATCC, cat. CRL-5823, RRID:CVCL_1509), NCI-H841 (ATCC, cat. CRL-5845, RRID:CVCL_1595), NCI-H1618 (ATCC, cat. CRL-5879, RRID:CVCL_1480), NCI-H1876 (ATCC, cat. CRL-5902, RRID:CVCL_1503), DMS 114 (ATCC, cat. CRL-2066; RRID:CVCL_1174), NCI-H211 (ATCC, cat. CRL-5824; RRID:CVCL_1529), and SW 1271 (ATCC, cat. CRL-2177, RRID:CVCL_1716). The small cell lung cancer cell line COR-L88 was purchased from Sigma-Aldrich (cat. 92031917-1VL, RRID:CVCL_1141). The non-small cell lung cancer cell lines NCI-H226 (RRID:CVCL_1544) and NCI-H322M (RRID:CVCL_1557) were established at the NCI and grown from internal seed stocks. Pooled donor human umbilical vein endothelial cells (HUVEC, Lonza, cat. CC-2519) and human mesenchymal stem cells (hMSC, Lonza, cat. PT-2501) were purchased from Lonza (Walkersville, MD).\nCell Culture. All cells were maintained in an incubator at 37 degrees C and 5% CO2 with 95% humidity. […]", "note": "pIC50: −log10 of the molar value. “And” between values parts separate entries of the source, which are not always exact repeats. Equal entries are not always repeated."}
{"molecule": "CC(C)n1c(=O)n(C)c2cnc3cc(F)c(-c4ccc(OCCCN5CCCCC5)nc4)cc3c21", "note": "+ COc1cc2c(cc1O)CCNC21CSC2c3c(OC(C)=O)c(C)c4c(c3C(COC1=O)N1C(O)C3Cc5cc(C)c(OC)c(O)c5C(C21)N3C)OCO4", "values": [{"measurement": "pIC50", "setting": "curve of first compound, second compound 30 pM", "value": "< 5.00"}, {"measurement": "pIC50", "setting": "curve of first compound, second compound 94.9 pM", "value": "> 7.50"}, {"measurement": "pIC50", "setting": "curve of first compound, second compound 0.0003 µM", "value": "> 7.50"}, {"measurement": "pIC50", "setting": "curve of first compound, second compound 0.000949 µM", "value": "> 7.50"}, {"measurement": "pIC50", "setting": "curve of first compound, second compound 0.003 µM", "value": "> 7.50"}, {"measurement": "viability, T/C", "setting": "second compound 30 pM, first compound 0.0316 µM", "value": 90.9, "unit": "%"}, {"measurement": "viability, T/C", "setting": "second compound 30 pM, first compound 0.1 µM", "value": 86.2, "unit": "%"}, {"measurement": "viability, T/C", "setting": "second compound 30 pM, first compound 0.316 µM", "value": 85.7, "unit": "%"}, {"measurement": "viability, T/C", "setting": "second compound 30 pM, first compound 1 µM", "value": 71.2, "unit": "%"}, {"measurement": "viability, T/C", "setting": "second compound 30 pM, first compound 3.16 µM", "value": 74.3, "unit": "%"}, {"measurement": "viability, T/C", "setting": "second compound 30 pM, first compound 10 µM", "value": 98.8, "unit": "%"}, {"measurement": "viability, T/C", "setting": "second compound 94.9 pM, first compound 0.0316 µM", "value": 40.8, "unit": "%"}, {"measurement": "viability, T/C", "setting": "second compound 94.9 pM, first compound 0.1 µM", "value": 60.5, "unit": "%"}, {"measurement": "viability, T/C", "setting": "second compound 94.9 pM, first compound 0.316 µM", "value": 45.5, "unit": "%"}, {"measurement": "viability, T/C", "setting": "second compound 94.9 pM, first compound 1 µM", "value": 47.9, "unit": "%"}, {"measurement": "viability, T/C", "setting": "second compound 94.9 pM, first compound 3.16 µM", "value": 36.5, "unit": "%"}, {"measurement": "viability, T/C", "setting": "second compound 94.9 pM, first compound 10 µM", "value": 43.7, "unit": "%"}, {"measurement": "viability, T/C", "setting": "second compound 0.0003 µM, first compound 0.0316 µM", "value": 30.1, "unit": "%"}, {"measurement": "viability, T/C", "setting": "second compound 0.0003 µM, first compound 0.1 µM", "value": 5.76, "unit": "%"}, {"measurement": "viability, T/C", "setting": "second compound 0.0003 µM, first compound 0.316 µM", "value": 27.8, "unit": "%"}, {"measurement": "viability, T/C", "setting": "second compound 0.0003 µM, first compound 1 µM", "value": 8.34, "unit": "%"}, {"measurement": "viability, T/C", "setting": "second compound 0.0003 µM, first compound 3.16 µM", "value": 8.82, "unit": "%"}, {"measurement": "viability, T/C", "setting": "second compound 0.0003 µM, first compound 10 µM", "value": 5.34, "unit": "%"}, {"measurement": "viability, T/C", "setting": "second compound 0.000949 µM, first compound 0.0316 µM", "value": 6.42, "unit": "%"}, {"measurement": "viability, T/C", "setting": "second compound 0.000949 µM, first compound 0.1 µM", "value": 7.84, "unit": "%"}, {"measurement": "viability, T/C", "setting": "second compound 0.000949 µM, first compound 0.316 µM", "value": 6.99, "unit": "%"}, {"measurement": "viability, T/C", "setting": "second compound 0.000949 µM, first compound 1 µM", "value": 6.68, "unit": "%"}, {"measurement": "viability, T/C", "setting": "second compound 0.000949 µM, first compound 3.16 µM", "value": 5.62, "unit": "%"}, {"measurement": "viability, T/C", "setting": "second compound 0.000949 µM, first compound 10 µM", "value": 4.34, "unit": "%"}, {"measurement": "viability, T/C", "setting": "second compound 0.003 µM, first compound 0.0316 µM", "value": 0.61, "unit": "%"}, {"measurement": "viability, T/C", "setting": "second compound 0.003 µM, first compound 0.1 µM", "value": 1.06, "unit": "%"}, {"measurement": "viability, T/C", "setting": "second compound 0.003 µM, first compound 0.316 µM", "value": 0.76, "unit": "%"}, {"measurement": "viability, T/C", "setting": "second compound 0.003 µM, first compound 1 µM", "value": 0.52, "unit": "%"}, {"measurement": "viability, T/C", "setting": "second compound 0.003 µM, first compound 3.16 µM", "value": 0.99, "unit": "%"}, {"measurement": "viability, T/C", "setting": "second compound 0.003 µM, first compound 10 µM", "value": 0.68, "unit": "%"}]}
{"molecule": "Cc1cc(C)c(CNC(=O)c2cc(-c3ccc(CN4CCOCC4)cc3)cc3c2cnn3C2CCCC2)c(=O)[nH]1", "values": [{"measurement": "viability, T/C", "setting": "compound 0.0316 µM", "value": "80.8% and 102% and 115%"}, {"measurement": "viability, T/C", "setting": "compound 0.1 µM", "value": "83.4% and 99.2% and 117%"}, {"measurement": "viability, T/C", "setting": "compound 0.316 µM", "value": "84.8% and 97.1% and 111%"}, {"measurement": "viability, T/C", "setting": "compound 1 µM", "value": "79.3% and 108% and 121%"}, {"measurement": "viability, T/C", "setting": "compound 3.16 µM", "value": "114% and 92.6% and 103%"}, {"measurement": "viability, T/C", "setting": "compound 10 µM", "value": "77.5% and 87.8% and 72.1%"}, {"measurement": "pIC50", "setting": "curve of compound", "value": "< 5.00"}]}
